How the values were obtained:
[1] = target: T1, progesterone receptor (PR) (Homo sapiens, UniProt P06401); assay: T47D alkaline phosphatase assay, PR antagonistic activity in the presence of 1 nM P4; format: cell-based; conditions: T47D cells; for IC50: 1.0 nM P4, 48 h, mean ± SD from three independent experiments; for PR antagonistic activity (in words): in the presence of 1 nM P4
T1 construct: alkaline phosphatase assay with the T47D human breast cancer cell line; endogenous in cells; host or cells: T47D
T1 sequence (P06401 1-933): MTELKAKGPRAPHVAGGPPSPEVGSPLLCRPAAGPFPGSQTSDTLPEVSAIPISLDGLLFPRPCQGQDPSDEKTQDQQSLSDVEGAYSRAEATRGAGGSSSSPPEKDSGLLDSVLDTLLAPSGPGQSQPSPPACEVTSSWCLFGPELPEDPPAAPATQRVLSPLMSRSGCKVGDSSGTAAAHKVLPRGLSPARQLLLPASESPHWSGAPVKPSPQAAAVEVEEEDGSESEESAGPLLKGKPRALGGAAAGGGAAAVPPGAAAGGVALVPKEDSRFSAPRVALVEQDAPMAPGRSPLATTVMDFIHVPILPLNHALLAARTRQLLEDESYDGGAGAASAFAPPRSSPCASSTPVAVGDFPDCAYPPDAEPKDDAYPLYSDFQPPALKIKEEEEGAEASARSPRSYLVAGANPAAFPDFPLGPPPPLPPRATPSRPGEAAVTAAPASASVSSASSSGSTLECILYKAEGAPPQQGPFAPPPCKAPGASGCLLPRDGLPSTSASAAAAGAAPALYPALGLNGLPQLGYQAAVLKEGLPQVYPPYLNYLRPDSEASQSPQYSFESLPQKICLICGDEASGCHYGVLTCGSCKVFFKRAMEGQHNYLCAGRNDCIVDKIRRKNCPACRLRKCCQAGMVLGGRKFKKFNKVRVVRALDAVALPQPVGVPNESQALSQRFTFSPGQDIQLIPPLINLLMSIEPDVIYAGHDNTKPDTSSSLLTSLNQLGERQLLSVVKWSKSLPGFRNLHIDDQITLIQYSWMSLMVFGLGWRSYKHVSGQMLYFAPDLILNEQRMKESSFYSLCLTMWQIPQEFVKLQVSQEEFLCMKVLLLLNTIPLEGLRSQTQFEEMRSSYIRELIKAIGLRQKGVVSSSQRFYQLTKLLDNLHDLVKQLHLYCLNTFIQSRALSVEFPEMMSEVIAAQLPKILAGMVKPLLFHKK
Description: The PR agonistic and antagonistic activities of the synthesized phosphine–borane derivatives were evaluated using an alkaline phosphatase assay with the T47D human breast cancer cell line. […] The basal alkaline phosphatase activity was also not affected by the tested compounds alone. […] The PR antagonistic activities of the compounds were assessed in the presence of 1 nM of P4 (5). We also calculated the molecular volume of each compound to investigate the structure–activity relationship (SAR). Table 2 summarizes the PR antagonistic activity and calculated volumes of the synthesized compounds. […] We investigated the binding affinity of the compounds toward the PR ligand-binding domain (LBD) using a fluorescence polarization assay system. […] We also investigated the activity of compounds 28 and 34 toward the androgen receptor (AR) by means of cell-proliferation promoting/inhibitory activity toward androgen-dependent SC-3 cells. […].
T47D alkaline phosphatase assays were performed as previously described, with minor modifications. Briefly, the human breast cancer cell line T47D (HMS LINCS database Accession Numbers: 50541) was routinely cultivated in RPMI 1640 medium with 10% FBS at 37 °C in a 5% CO2 humidified incubator. The cells were plated in 96-well plates and incubated overnight in a 5% CO2 humidified incubator at 37 °C. The next day, the cells were treated with a fresh medium containing the test compound in the presence of 1 nM of progesterone and further incubated for 48 h. The medium was aspirated, and the cells were fixed with 100 μL of 1.8% formalin–PBS. The fixed cells were washed with PBS, and 100 μL of an assay buffer (1 mg/mL p-nitrophenol phosphate in diethanolamine water solution, pH 9.0) was added. The mixture was incubated at room temperature for 2 h under light-shielded conditions. The absorbance was measured at 405 nm using a DTX 880 Multimode Detector (Beckman Coulter, Brea, CA, USA). All data points were measured in triplicate, and IC50 values were calculated from three independent experiments.

[2] = LogP (1-octanol/water partition coefficient) determined using HPLC; format: physicochemical
Description: Hydrophobicity is a key determinant of the activity and pharmacokinetics of biologically active compounds, and the octanol–water partition coefficient (P) and logarithm value (LogP) are widely used hydrophobicity parameters. The LogP values of the synthesized compounds were determined using HPLC [45, 46]. Table 1 summarizes the experimentally determined LogP values and calculated values. […] From the viewpoint of the phosphine structure, an increase in the number of carbon atoms increased hydrophobicity in a predictable manner.
The 1-octanol/water partition coefficient P was determined using HPLC based on the OECD Guideline for Testing Chemicals. A COSMOSIL Packed Column 5C18-MS-II (5 μm, 150 mm × 4.6 mm id, Nacalai Tesque, Inc., Kyoto, Japan) was fitted on an HPLC instrument (Multiwavelength Detector, MD-2010 Plus. JASCO, Tokyo, Japan) equipped with a pump (PU-2080, JASCO) and an oven (SSC-2120, Senshu Scientific Co., Ltd., Tokyo, Japan). The injection volume was 20 µL; the mobile phase was methanol–water 75% (v/v); and the flow rate was 1.0 mL/min in all cases. Compounds were detected by measuring the UV absorption at 240 nm. The temperature of the column was kept at 40.0 (± 0.1) °C during the measurement. The measurement was performed in triplicate, and the mean value was calculated. The dead time t0 was measured with thiourea as the unretained compound, and the capacity factor k was calculated using the equation logk = log (tr − t0/t0), where tr represents the retention time of the compound. A calibration graph was determined experimentally using reference compounds (4-methylphenol, 4-chlorophenol, 4-phenylphenol, diphenylether, fluoranthene, and dichlorodiphenyltrichloroethane) with known logP values. The LogP values of phosphine–boranes were calculated based on a calibration graph (LogP = 2.6269 logkw + 3.059, R^2 = 0.9915).

[3] = HPLC (OECD guideline), C18 column, methanol–water 75% (v/v), 40 °C, mean of triplicate
[4] = HPLC, tentative value: hydrophobicity beyond the range of the reference compounds (1.9 < LogP < 6.5)

SMILES | IC50 [1] | PR antagonistic activity (in words) [1] | chromatographic logP [2, 3] | melting point | chromatographic logP [2, 4]
C[P+](C)([BH2-]c1cccc(C(F)(F)F)c1)c1ccccc1 [Compound 17, B-(3-Trifluoromethyl)phenyl Dimethyl(phenyl)phosphine–Borane] | 1160 ± 600 nM | potent activities | 4.54 | 75 to 75.8 °C | 
CC(C)[P+]([BH2-]c1cccc(C(F)(F)F)c1)(C(C)C)C(C)C [Compound 20, B-3-(Trifluoromethyl)phenyl Triisopropylphosphine–Borane] | 1350 ± 470 nM | potent activities | 5.89 |  | 
CC(C)[P+]([BH2-]c1cccc(C(F)(F)F)c1)(c1ccccc1)C(C)C [Compound 21, B-3-(Trifluoromethyl)phenyl Diisopropyl(phenyl)phosphine–Borane] | 3350 ± 1490 nM | moderate PR antagonistic activity | 5.93 | 118.7 to 119.1 °C | 
FC(F)(F)c1cccc([BH2-][P+](C2CC2)(C2CC2)C2CC2)c1 [Compound 22, B-3-(Trifluoromethyl)phenyl Tricyclopropylphosphine–Borane] | 650 ± 170 nM | potent activities | 5.21 |  | 
FC(F)(F)c1cccc([BH2-][P+](C2CCCC2)(C2CCCC2)C2CCCC2)c1 [Compound 24, B-3-(Trifluoromethyl)phenyl Tricyclopentylphosphine–Borane] | 6640 ± 870 nM | moderate PR antagonistic activity |  |  | 7.84
FC(F)(F)c1cccc([BH2-][P+](C2CCCCC2)(C2CCCCC2)C2CCCCC2)c1 [Compound 25, B-3-(Trifluoromethyl)phenyl Tricyclohexylphosphine–Borane] | > 10000 nM | only weak potency |  | 100 to 100.5 °C | 8.69
FC(F)(F)c1cccc([BH2-][PH+](C2CCCCC2)C2CCCCC2)c1 [Compound 26, B-3-(Trifluoromethyl)phenyl Dicyclohexylphosphine–Borane] |  |  |  |  | 7.28
CN(C)[P+]([BH2-]c1cccc(C(F)(F)F)c1)(N(C)C)N(C)C [Compound 27, B-3-(Trifluoromethyl)phenyl Tris(dimethylamino)phosphine–Borane] | 1200 ± 630 nM | potent activities | 5.39 |  | 
FC(F)(F)c1ccc([BH2-][P+](C2CCCC2)(C2CCCC2)C2CCCC2)cc1 [Compound 36, B-4-(Trifluoromethyl)phenyl Tricyclopentylphosphine–Borane] | 2630 ± 720 nM |  |  | 88 to 88.6 °C | 7.95
FC(F)(F)c1ccc([BH2-][P+](C2CCCCC2)(C2CCCCC2)C2CCCCC2)cc1 [Compound 37, B-4-(Trifluoromethyl)phenyl Tricyclohexylphosphine–Borane] | > 10000 nM |  |  | 126.7 to 127 °C | 8.97
FC(F)(F)c1ccc([BH2-][PH+](C2CCCCC2)C2CCCCC2)cc1 [Compound 38, B-4-(Trifluoromethyl)phenyl Dicyclohexylphosphine–Borane] |  |  |  | 52.7 to 53.7 °C | 7.34

More lines, now with the values ahead:

IC50 [1] | PR antagonistic activity (in words) [1] | chromatographic logP [2, 3] | melting point | chromatographic logP [2, 4] | SMILES
> 10000 nM | only weak potency | 3.65 |  |  | C[P+](C)(C)[BH2-]c1cccc(C(F)(F)F)c1 [Compound 16, B-3-(Trifluoromethyl)phenyl Trimethylphosphine–Borane]
3670 ± 3340 nM | moderate PR antagonistic activity | 4.88 |  |  | CC[P+]([BH2-]c1cccc(C(F)(F)F)c1)(CC)CC [Compound 18, B-3-(Trifluoromethyl)phenyl Triethylphosphine–Borane]
1120 ± 220 nM | potent activities | 5.24 | 40 to 40.5 °C |  | CC[P+]([BH2-]c1cccc(C(F)(F)F)c1)(CC)c1ccccc1 [Compound 19, B-3-(Trifluoromethyl)phenyl Diethyl(phenyl)phosphine–Borane]
> 10000 nM | only weak potency |  |  | 7.34 | CCCC[P+]([BH2-]c1cccc(C(F)(F)F)c1)(CCCC)CCCC [Compound 23, B-3-(Trifluoromethyl)phenyl Tri-n-Butylphosphine–Borane]
1610 ± 870 nM |  | 4.65 | 78 to 78.3 °C |  | C[P+](C)([BH2-]c1ccc(C(F)(F)F)cc1)c1ccccc1 [Compound 29, B-4-(Trifluoromethyl)phenyl Dimethyl(phenyl)phosphine–Borane]
1760 ± 1440 nM |  | 4.99 |  |  | CC[P+]([BH2-]c1ccc(C(F)(F)F)cc1)(CC)CC [Compound 30, B-4-(Trifluoromethyl)phenyl Triethylphosphine–Borane]
1780 ± 970 nM |  | 5.41 | 62 to 62.3 °C |  | CC[P+]([BH2-]c1ccc(C(F)(F)F)cc1)(CC)c1ccccc1 [Compound 31, B-4-(Trifluoromethyl)phenyl Diethyl(phenyl)phosphine–Borane]
1510 ± 530 nM |  | 6.06 | 59 to 59.4 °C |  | CC(C)[P+]([BH2-]c1ccc(C(F)(F)F)cc1)(C(C)C)C(C)C [Compound 32, B-4-(Trifluoromethyl)phenyl Triisopropylphosphine–Borane]
2010 ± 580 nM |  | 6.15 | 94.8 to 95.2 °C |  | CC(C)[P+]([BH2-]c1ccc(C(F)(F)F)cc1)(c1ccccc1)C(C)C [Compound 33, B-4-(Trifluoromethyl)phenyl Diisopropyl(phenyl)phosphine–Borane]
> 10000 nM |  |  | 33.2 to 33.8 °C | 7.5 | CCCC[P+]([BH2-]c1ccc(C(F)(F)F)cc1)(CCCC)CCCC [Compound 35, B-4-(Trifluoromethyl)phenyl Tri-n-butylphosphine–Borane]
